In experiment [1] the test system is guinea pig gall bladder contracted with CCK-8. The experiment is described as follows: Anti-CCK activity on guinea pig gall bladders in vitro. The class given is biochemical. As to conditions: CCK-8 10 ng/ml, concentration antagonising 50% of contracting effect. The essentials: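 Longitudinal gall bladder strips in Krebs at 32° C, gassed with O2/CO2 95:5, were contracted with CCK-8 at 10 ng/ml and contractions recorded isometrically via force transducer. ED50 in mcg/ml is the compound concentration antagonising 50% of CCK contraction, derived by regression over at least three experiments.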

In experiment [2] the test system is analgesic activity of morphine. The experiment is described as follows: Tail Flick Test: increase in the analgesic effect of morphine. As to conditions: for percentage variation in the latency of the pain sensation, 10' / percentage variation in the latency of the pain sensation, 20' / percentage variation in the latency of the pain sensation, 30' / percentage variation in the latency of the pain sensation, 45' / percentage variation in the latency of the pain sensation, 60' / percentage variation in the latency of the pain sensation, 90' / M(10'-90') average percentage variation: compound 10 mg/kg i.p. + morphine 2 mg/kg (row Morphine: alone); for percentage variation in the latency of the pain sensation, 10' / percentage variation in the latency of the pain sensation, 20' / percentage variation in the latency of the pain sensation, 30' / percentage variation in the latency of the pain sensation, 45' / percentage variation in the latency of the pain sensation, 60' / percentage variation in the latency of the pain sensation, 90': ± S.E.; for M(10'-90') average percentage variation: mean 10'-90'; for Potency ratio relative to morphine alone: rat, in vivo. It is filed as in vivo, rats. The essentials: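 Male non-fasted rats, 150-200 g; heat source (75 °C) on tail, latency to tail movement timed, 8 s cut-off. Measured before and 10, 20, 30, 45, 60, 90 min after analgesic dosing; percentage variation per animal, averaged over groups of five.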

Experiment [3] concerns colon of rabbits stimulated with CCK-8. The experiment is described as follows: Antispastic activity in the colon of rabbits stimulated with CCK-8. The class given is in vivo, rabbit. More on the design: Antispastic activity, experiment 1 / Antispastic activity, experiment 2 / Antispastic activity, experiment 3: unit not given here. As to conditions: CCK 100 ng/kg; for ED50: Oryctolagus cuniculus, iv, three experiments. The procedure:
The abdomen of an anaesthetised rabbit is cut open to expose the transverse colon. A balloon full of water is inserted at the point established and connected to a pressure transducer by means of a polyethylene cannula filled with H2 O.
The optimum sensitivity in relation to the physiological contractions is fixed and the products are administered through the femoral veins. Contractions are induced by the administration of 100 ng/kg of CCK.

Experiment [4] concerns analgesic activity of DALA. Nature of the experiment: Tail Flick test: increase in the analgesic activity of DALA (i.c.v.). It is filed as in vivo, rats. The note with it: b802: 0.001 g/kg. As for the experimental part: In order to check one of the possible mechanisms for the action of the compounds of the invention, that is, their possible inhibition of the enzymatic degradation of endogenous enkephalins, the following experiment was carried out:
A cannula was implanted in the right lateral ventricle of male rats having a weight of 150-200 g (groups of five animals were used) in order to allow the intracerebroventricular (i.c.v.) administration of drugs according to the method of Noble et al (Life Science 6, (1970) 281-291).
The animals were subsequently treated (i.c.v.) with 3 μg of D-ala-methionine-enkephalinamide (DALA) immediately after an injection (i.c.v.) of the compounds under study at the doses given in Table 4. Analgesia was tested for by the Tail Flick method already mentioned, at the times

As to `O=C(N[C@@H](Cc1c[nH]c2ccccc12)C(=O)O)OCc1ccc(Cl)cc1` [Compound 2], the “Anti CCK-8 activity, ED50” value in experiment [1] turned out to be 13.5 µg/mL. Besides, in experiment [2], the “percentage variation in the latency of the pain sensation, 10'” value came out at 50.0 ± 14.9%; the “percentage variation in the latency of the pain sensation, 20'” value was determined as 25.0 ± 26.0%; the “percentage variation in the latency of the pain sensation, 30'” value came out at 75.6 ± 17.6%; the “percentage variation in the latency of the pain sensation, 45'” value worked out at 23.7 ± 19.6%. In experiment [2], the “percentage variation in the latency of the pain sensation, 60'” value was found to be 41.0 ± 20.3%; the “percentage variation in the latency of the pain sensation, 90'” value is on record as 43.6 ± 16.4%; the “M(10'-90') average percentage variation” value is on record as 44.6%; the “Potency ratio relative to morphine alone” value was determined as 1.50. Moreover, in experiment [3] (1 mg/kg iv), the “Antispastic activity, experiment 1” value is -10.9; the “Antispastic activity, experiment 2” value is reported as -16.8; the “Antispastic activity, experiment 3” value is on record as -38.8. Besides, in experiment [3] (3 mg/kg iv), the “Antispastic activity, experiment 1” value is -31.4; the “Antispastic activity, experiment 2” value was -56.6; the “Antispastic activity, experiment 3” value is on record as -41.5. Further, in experiment [3] (10 mg/kg iv), the “Antispastic activity, experiment 1” value is given as -85.9; the “Antispastic activity, experiment 2” value is -74.4; the “Antispastic activity, experiment 3” value was -90.2. Further, in experiment [3], the ED50 (usually the dose at which the effect has come halfway, by size or by number of responders) stood at 4.67 mg/kg.
Consider `CC(C)c1ccc(C(=O)N[C@@H](Cc2c[nH]c3ccccc23)C(=O)O)cc1` [Compound 20], for which the “Anti CCK-8 activity, ED50” value in experiment [1] came out at 17.9 µg/mL. For the same compound, in experiment [2], the “percentage variation in the latency of the pain sensation, 10'” value was 20.0 ± 12.8%; the “percentage variation in the latency of the pain sensation, 20'” value worked out at 33.1 ± 22.0%; the “percentage variation in the latency of the pain sensation, 30'” value worked out at 37.6 ± 18.9%; the “percentage variation in the latency of the pain sensation, 45'” value was 37.5 ± 18.8%. For the same compound, in experiment [2], the “percentage variation in the latency of the pain sensation, 60'” value is 54.4 ± 19.3%; the “percentage variation in the latency of the pain sensation, 90'” value came to 33.2 ± 18.1%; the “M(10'-90') average percentage variation” value worked out at 36.0%; the “Potency ratio relative to morphine alone” value is reported as 1.21. Further, the “Antispastic activity, experiment 3” value in experiment [3] (0.3 mg/kg iv) is reported as -12.8. In experiment [3] (1 mg/kg iv), the “Antispastic activity, experiment 1” value was -30.8; the “Antispastic activity, experiment 2” value is given as -44.2; the “Antispastic activity, experiment 3” value was -34.7. For the same compound, in experiment [3] (3 mg/kg iv), the “Antispastic activity, experiment 1” value is -36.0; the “Antispastic activity, experiment 2” value is -60.3; the “Antispastic activity, experiment 3” value is -59.0. Also, in experiment [3] (10 mg/kg iv), the “Antispastic activity, experiment 1” value is on record as -82.5 and the “Antispastic activity, experiment 2” value is -100.0. In experiment [3], this compound registered a 50% effective dose (ED50) of 3.41 mg/kg.
Consider `CCCN(CCC)C(=O)C(CCC(=O)O)NC(=O)c1ccccc1` (stereo not drawn) [proglumide, reference compound], for which, in experiment [4], the “potentiating action on the analgesic effect of DALA (in words)” value is on record as “highly significant”.

Source of the values: patent US4870097A, “Pharmaceutical use of derivatives of tryptophan” (priority 1984, dated 1989).
